Measured values taken from ChEMBL document CHEMBL4619754, “Discovery of novel, potent, and orally bioavailable pyrido[2,3-d][1]benzazepin-6-one antagonists for parathyroid hormone receptor 1” (Bioorg Med Chem, 2020).
In brackets after ≈: the same amount, converted by molar mass.

Tests used:
[1] = Metabolic stability in rat liver microsomes assessed as parent compound remaining at 1 uM in presence of NADPH generating system measured after 20 mins by LC-MS/MS analysis; assay type: ADME, Microsome; conditions: read-out: Stability
[2] = Drug degradation in HCL/CH2Cl2 by TLC analysis; assay type: physicochemical; conditions: read-out: Drug degradation
[3] = Solubility of the compound in JP2 buffer at pH 6.8; assay type: physicochemical
[4] = Solubility of the compound in JP1 fluid at pH 1.2; assay type: physicochemical
[5] = target: T1, Parathyroid hormone/parathyroid hormone-related peptide receptor (Homo sapiens, UniProt Q03431); experiment: Antagonist activity at PTHR1 (unknown origin) expressed in CHOK1 cells co-expressing Gs/Gq assessed as reduction in human PTH (1 to 34 residues)-induced cAMP level incubated for 30 mins; assay type: functional, cell-based, CHO-K1
T1 sequence (Q03431 whole entry): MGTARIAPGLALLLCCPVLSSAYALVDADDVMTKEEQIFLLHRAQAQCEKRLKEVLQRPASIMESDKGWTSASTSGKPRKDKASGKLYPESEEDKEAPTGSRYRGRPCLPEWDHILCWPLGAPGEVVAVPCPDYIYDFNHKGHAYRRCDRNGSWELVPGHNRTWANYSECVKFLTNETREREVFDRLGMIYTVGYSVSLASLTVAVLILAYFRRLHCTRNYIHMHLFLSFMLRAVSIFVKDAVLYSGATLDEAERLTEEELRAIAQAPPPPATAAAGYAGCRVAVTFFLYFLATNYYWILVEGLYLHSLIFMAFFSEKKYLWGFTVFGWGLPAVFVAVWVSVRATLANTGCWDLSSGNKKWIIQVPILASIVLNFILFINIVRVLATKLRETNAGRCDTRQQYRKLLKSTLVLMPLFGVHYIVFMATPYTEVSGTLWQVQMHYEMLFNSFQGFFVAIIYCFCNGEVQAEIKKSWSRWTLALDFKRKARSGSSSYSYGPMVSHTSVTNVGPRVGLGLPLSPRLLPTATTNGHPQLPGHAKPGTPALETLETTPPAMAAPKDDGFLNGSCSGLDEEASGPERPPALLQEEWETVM

CYP3A4 = CYP3A4 (Homo sapiens, UniProt P08684); experiment: Inhibition of CYP3A4 (unknown origin) at 10 uM relative to control; assay type: ADME
CYP2C9 = CYP2C9 (Homo sapiens, UniProt P11712); experiment: Inhibition of CYP2C9 (unknown origin) at 10 uM relative to control; assay type: ADME
CYP2C8 = target: T2, CYP2C8 (Homo sapiens, UniProt P10632); experiment: Inhibition of CYP2C8 (unknown origin) at 10 uM relative to control; assay type: ADME
T2 sequence (P10632 whole entry): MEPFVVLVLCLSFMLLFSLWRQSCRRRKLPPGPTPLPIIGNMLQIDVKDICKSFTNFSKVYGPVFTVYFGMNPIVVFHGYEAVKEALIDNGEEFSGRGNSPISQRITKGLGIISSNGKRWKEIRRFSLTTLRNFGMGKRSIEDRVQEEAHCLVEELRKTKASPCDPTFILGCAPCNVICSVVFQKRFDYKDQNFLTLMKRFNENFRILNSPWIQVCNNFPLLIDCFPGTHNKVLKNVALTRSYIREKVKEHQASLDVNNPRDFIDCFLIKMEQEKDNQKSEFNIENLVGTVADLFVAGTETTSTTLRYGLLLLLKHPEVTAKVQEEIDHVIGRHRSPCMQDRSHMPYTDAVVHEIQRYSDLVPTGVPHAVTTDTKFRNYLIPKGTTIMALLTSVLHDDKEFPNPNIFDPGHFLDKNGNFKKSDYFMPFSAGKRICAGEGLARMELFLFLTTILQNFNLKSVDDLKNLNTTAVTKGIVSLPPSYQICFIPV

[6] = 1-Octanol/PBS buffer distribution coefficient, log D of the compound at pH 7.4; assay type: physicochemical
[7] = Plasma clearance in Sprague-Dawley rat at 1 mg/kg, iv by LC-MS/MS analysis; assay type: ADME, organism-based
CYP2C19 = CYP2C19 (Homo sapiens, UniProt P33261); experiment: Inhibition of CYP2C19 (unknown origin) at 10 uM relative to control; assay type: ADME
[8] = AUClast in Sprague-Dawley rat at 5 mg/kg, po by LC-MS/MS analysis; assay type: ADME, organism-based; parameters: dose 5 mg/kg, time 0 - last, route oral; conditions: in vivo
[9] = Volume of distribution at steady state in Sprague-Dawley rat at 1 mg/kg, iv by LC-MS/MS analysis; assay type: ADME, organism-based; conditions: in vivo, read-out: Vdss
[10] = Elimination half life in Sprague-Dawley rat at 5 mg/kg, po by LC-MS/MS analysis; assay type: ADME, organism-based; conditions: in vivo, read-out: BBB (converted)
CYP1A2 = target: T3, CYP1A2 (Homo sapiens, UniProt P05177); experiment: Inhibition of CYP1A2 (unknown origin) at 10 uM relative to control; assay type: ADME
T3 sequence (P05177 whole entry): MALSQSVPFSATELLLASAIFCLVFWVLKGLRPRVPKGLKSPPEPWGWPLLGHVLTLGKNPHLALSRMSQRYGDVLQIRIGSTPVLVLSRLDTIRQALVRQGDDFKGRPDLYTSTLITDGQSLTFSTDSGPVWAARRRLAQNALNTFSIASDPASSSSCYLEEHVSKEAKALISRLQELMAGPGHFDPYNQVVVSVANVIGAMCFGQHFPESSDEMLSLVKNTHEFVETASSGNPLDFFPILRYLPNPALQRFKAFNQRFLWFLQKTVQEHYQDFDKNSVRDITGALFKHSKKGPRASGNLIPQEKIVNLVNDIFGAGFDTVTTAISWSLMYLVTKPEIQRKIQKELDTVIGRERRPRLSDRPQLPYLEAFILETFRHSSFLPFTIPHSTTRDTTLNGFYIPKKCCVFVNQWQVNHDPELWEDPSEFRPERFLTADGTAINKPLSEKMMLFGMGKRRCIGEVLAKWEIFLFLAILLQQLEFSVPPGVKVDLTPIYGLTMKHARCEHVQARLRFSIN

CYP2D6 = CYP2D6 (Homo sapiens, UniProt P10635); experiment: Inhibition of CYP2D6 (unknown origin) at 10 uM relative to control; assay type: ADME
[11] = Oral bioavailability in Sprague-Dawley rat at 10 mg/kg by LC-MS/MS analysis; assay type: ADME, organism-based; conditions: in vivo

Sequence of CYP2C9 (P11712 whole entry): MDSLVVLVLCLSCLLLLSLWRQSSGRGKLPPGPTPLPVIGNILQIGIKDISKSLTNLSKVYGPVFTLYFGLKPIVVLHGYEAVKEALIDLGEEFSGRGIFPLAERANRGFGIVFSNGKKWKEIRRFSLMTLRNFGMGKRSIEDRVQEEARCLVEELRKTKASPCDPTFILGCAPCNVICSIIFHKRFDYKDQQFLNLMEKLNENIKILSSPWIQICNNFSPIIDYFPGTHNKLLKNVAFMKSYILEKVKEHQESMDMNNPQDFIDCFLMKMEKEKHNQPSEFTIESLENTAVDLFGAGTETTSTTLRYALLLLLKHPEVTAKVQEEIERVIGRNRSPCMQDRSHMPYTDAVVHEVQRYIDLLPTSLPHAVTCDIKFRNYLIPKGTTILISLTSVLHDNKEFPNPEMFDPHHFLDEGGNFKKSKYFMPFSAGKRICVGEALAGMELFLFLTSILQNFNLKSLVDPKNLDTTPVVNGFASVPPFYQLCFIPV
Sequence of CYP3A4 (P08684 whole entry): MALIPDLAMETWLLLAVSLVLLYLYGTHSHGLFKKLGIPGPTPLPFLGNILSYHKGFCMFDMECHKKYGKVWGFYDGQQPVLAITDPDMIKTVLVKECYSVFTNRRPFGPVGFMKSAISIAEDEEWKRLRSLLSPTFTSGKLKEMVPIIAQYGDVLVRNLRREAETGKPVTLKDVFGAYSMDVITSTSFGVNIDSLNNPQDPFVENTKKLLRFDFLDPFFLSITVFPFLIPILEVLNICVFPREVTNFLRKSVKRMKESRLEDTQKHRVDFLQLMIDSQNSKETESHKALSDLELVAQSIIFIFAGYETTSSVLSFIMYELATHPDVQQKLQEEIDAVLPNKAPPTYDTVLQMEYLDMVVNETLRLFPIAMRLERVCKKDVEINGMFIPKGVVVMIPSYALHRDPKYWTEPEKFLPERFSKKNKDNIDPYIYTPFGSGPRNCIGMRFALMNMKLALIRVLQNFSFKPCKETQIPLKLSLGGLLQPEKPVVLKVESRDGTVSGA
Sequence of CYP2D6 (P10635 whole entry): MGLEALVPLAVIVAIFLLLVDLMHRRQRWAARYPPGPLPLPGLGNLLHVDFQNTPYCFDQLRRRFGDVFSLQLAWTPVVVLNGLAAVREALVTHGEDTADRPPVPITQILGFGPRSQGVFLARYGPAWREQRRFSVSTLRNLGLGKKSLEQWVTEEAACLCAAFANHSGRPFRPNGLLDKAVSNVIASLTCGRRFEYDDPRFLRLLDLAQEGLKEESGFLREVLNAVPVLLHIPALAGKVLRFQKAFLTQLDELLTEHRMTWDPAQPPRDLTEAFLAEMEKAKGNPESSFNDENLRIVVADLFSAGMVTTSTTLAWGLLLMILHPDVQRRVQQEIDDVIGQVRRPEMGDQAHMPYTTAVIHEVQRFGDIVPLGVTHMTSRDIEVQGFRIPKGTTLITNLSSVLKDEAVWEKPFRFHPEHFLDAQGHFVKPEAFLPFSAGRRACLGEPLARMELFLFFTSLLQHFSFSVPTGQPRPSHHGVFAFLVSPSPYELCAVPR
Sequence of CYP2C19 (P33261 whole entry): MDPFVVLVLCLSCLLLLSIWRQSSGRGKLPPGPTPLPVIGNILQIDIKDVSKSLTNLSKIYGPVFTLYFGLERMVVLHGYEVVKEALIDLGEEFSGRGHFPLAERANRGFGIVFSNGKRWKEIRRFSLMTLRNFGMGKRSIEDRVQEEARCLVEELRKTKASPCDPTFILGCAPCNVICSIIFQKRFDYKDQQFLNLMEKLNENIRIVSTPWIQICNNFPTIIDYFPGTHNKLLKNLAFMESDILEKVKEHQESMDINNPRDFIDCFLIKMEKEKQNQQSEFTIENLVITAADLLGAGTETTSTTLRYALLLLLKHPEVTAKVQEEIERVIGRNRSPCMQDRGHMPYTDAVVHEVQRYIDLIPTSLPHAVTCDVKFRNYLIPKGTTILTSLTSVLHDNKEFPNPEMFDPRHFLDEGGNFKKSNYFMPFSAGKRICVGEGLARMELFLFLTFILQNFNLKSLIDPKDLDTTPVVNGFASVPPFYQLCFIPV

Compound | remaining at 20 min, 1 µM [1] | solubility [3] | solubility [4] | IC50 [5] | further results
CC1(C)C(=O)N(c2ccc(NCCNC3CCOCC3)cc2)c2cc(F)ccc2-c2cc(Cl)cnc21 | 42% | 380 µg/mL (≈ 747 µM) | 960 µg/mL (≈ 1890 µM) |  | 
CC1(C)C(=O)N(c2ccc(NCCNC3CCOCC3)cc2)c2cc(Cl)ccc2-c2cc(Cl)ccc21 | 75% | 4.7 µg/mL (≈ 8.96 µM) | 36 µg/mL (≈ 68.6 µM) |  | 
COc1ccc2c(c1)N(c1ccc(NCCNC3CCOCC3)cc1)C(=O)C(C)(C)c1ncc(Cl)cc1-2 | 59% | 3.8 µg/mL (≈ 7.29 µM) | 250 µg/mL (≈ 480 µM) |  | 
Cc1ccc2c(c1)N(c1ccc(NCCNC3CCOCC3)cc1)C(=O)C(C)(C)c1ncc(Cl)cc1-2 | 52% | 24 µg/mL (≈ 47.5 µM) | 870 µg/mL (≈ 1720 µM) |  | 
CC1(C)C=C(C2CCCCC2)c2ccc(Cl)cc2N(c2ccc(NCCNC3CCOCC3)cc2)C1=O | 58% |  |  | 0.97 µM | 
CC1(C)C(=O)N(c2ccc(NCCNC3CCOCC3)cc2)c2cc(Cl)ccc2-c2cc(Cl)cnc21 | 65% | 77 µg/mL (≈ 147 µM) | 570 µg/mL (≈ 1080 µM) |  | inhibition at 10 µM (CYP3A4): < 50%; inhibition at 10 µM (CYP2C9): < 50%; inhibition at 10 µM (CYP2C8): < 50%; logD [6]: 3.5; clearance [7]: 39 mL/min/kg; inhibition at 10 µM (CYP2C19): < 50%; AUC(0-t) [8]: 2500 ng·h/mL; Vd [9]: 29.4 L/kg; half-life [10]: 13.1 h; inhibition at 10 µM (CYP1A2): < 50%; inhibition at 10 µM (CYP2D6): < 50%; bioavailability [11]: 61%
CC1(C)C(=O)N(c2ccc(NCCNC3CCOCC3)cc2)c2cc(Cl)ccc2-c2ccccc21 | 21% | 9.1 µg/mL (≈ 18.6 µM) | 83 µg/mL (≈ 169 µM) | 3.2 µM | 

Further lines, with some results ahead:

remaining at 20 min, 1 µM [1] | solubility [3] | solubility [4] | IC50 [5] | Compound | further results
28% |  |  |  | CC1(C)N=C(C2CCCCC2)c2ccc(C#N)cc2N(c2ccc(NCCNC3CCOCC3)cc2)C1=O | degraded [2]: 100%
97% |  |  | 8.8 µM | CC1(C)C=C(C2CCCCC2)c2ccc(C#N)cc2N(c2ccc(NCCNC3CCOCC3)cc2)C1=O | 
19% | 470 µg/mL (≈ 923 µM) | 920 µg/mL (≈ 1810 µM) |  | CC1(C)C(=O)N(c2ccc(NCCNC3CCOCC3)cc2)c2cc(Cl)ccc2-c2cc(F)cnc21 | 
 |  |  | 4.37 µM | CC(C)N1N=C(C2CCCCC2)c2ccc(Cl)cc2N(c2ccc(NCCNC3CCOCC3)cn2)C1=O | 
34% | 720 µg/mL (≈ 1400 µM) | 990 µg/mL (≈ 1920 µM) |  | CC1(C)C(=O)N(c2ccc(NCCNC3CCOCC3)cc2)c2cc(C#N)ccc2-c2cc(Cl)cnc21 | 
62% | 510 µg/mL (≈ 1010 µM) | > 980 µg/mL |  | Cc1cnc2c(c1)-c1ccc(Cl)cc1N(c1ccc(NCCNC3CCOCC3)cc1)C(=O)C2(C)C | 
